Results published in US20020107404A1, “Sulfur-containing indirubin derivatives, their production and use” (Schering AG, priority 2000, published 2002).

Tests used:
MCF-7 = assay: Proliferation assay, MCF-7; format: cell-based, human; settings: MCF7, 96 h, 4 days incubation, crystal violet
Method: (§1) Cultivated human tumor cells (as indicated) were flattened out at a density of 5000 cells/measuring point in a 96-well multititer plate in 200 μl of the corresponding growth medium. After 24 hours, the cells of one plate (zero-point plate) were colored with crystal violet (see below), while the medium of the other plates was replaced by fresh culture medium (200 μl), to which the test substances were added in various concentrations (0 μm, as well as in the range of 0.01-30 μm; the final concentration of the solvent dimethyl sulfoxide was 0.5%. The cells were incubated for 4 days in the presence of test substances. The cell proliferation was determined by coloring the cells with crystal violet: the cells were fixed by adding 20 μl/measuring point of a 11% glutaric aldehyde solution for 15 minutes at room temperature. After three washing cycles of the fixed cells with water, the plates were dried at room temperature. The cells were colored by adding 100 μl/measuring point of a 0.1% crystal violet solution (pH was set at 3 by adding acetic acid). After three washing cycles of the colored cells with water, the plates were dried at room temperature. The dye was dissolved by adding 100 μl/measuring point of a 10% acetic acid solution. The extinction was determined by photometry at a wavelength of 595 nm. The change of cell growth, in percent, was calculated by standardization of the measured values to the extinction values of the zero-point plate (=0%) and the extinction of the untreated (0 μm) cells (=100%).

DU145 = assay: Proliferation assay, DU145; format: cell-based; settings: Homo sapiens, DU-145, 96 h; comparison table; 4 days incubation, crystal violet
Method: as §1, with “After three washing cycles of the colored cells with water, the plates were dried at room temperature. The dye was dissolved by adding 100 μl/measuring point of a 10% acetic acid solution.” left out

H460 = assay: Proliferation assay, H460; format: cell-based; settings: Homo sapiens, NCI-H460, 96 h; comparison table; 4 days incubation, crystal violet
Method: as §1, with “After three washing cycles of the colored cells with water, the plates were dried at room temperature. The dye was dissolved by adding 100 μl/measuring point of a 10% acetic acid solution.” left out

HCT116 = assay: Proliferation assay, HCT116; format: cell-based; settings: Homo sapiens, HCT-116, 96 h; comparison table; 4 days incubation, crystal violet
Method: as §1, with “After three washing cycles of the colored cells with water, the plates were dried at room temperature. The dye was dissolved by adding 100 μl/measuring point of a 10% acetic acid solution.” left out

CDK2/CycE = target: T1, CDK2/CycE (Homo sapiens, UniProt P24941); assay: CDK2/CycE kinase assay; format: biochemical; settings: recombinant CDK2/CycE, histone IIIS substrate, 0.5 μm ATP
T1 construct: GST; purchased Dr. Dieter Marmé, Klinik für Tumorbiologie, Freiburg (external academic supplier); host or cells: baculovirus-infected Sf9 insect cells
Method: Recombinant CDK2- and CycE-GST-fusion proteins, purified from baculovirus-infected insect cells (Sf9), were obtained by Dr. Dieter Marmé, Klinik für Tumorbiologie [Clinic for Tumor Biology], Freiburg. Histone IIIS, which was used as a kinase substrate, was purchased by the Sigma Company.
CDK2/CycE (50 ng/measuring point) was incubated for 15 minutes at 22° C. in the presence of various concentrations of test substances (0 μm, as well as within the range of 0.01-100 μm) in assay buffer [50 mmol of tris/HCl pH 8.0, 10 mmol of MgCl2, 0.1 mmol of Na ortho-vanadate, 1.0 mmol of dithiothreitol, 0.5 μm of adenosine triphosphate (ATP), 10 μg/measuring point of histone IIIS, 0.2 μCi/measuring point of ^33P-gamma ATP, 0.05% NP40, 12.5% dimethyl sulfoxide]. The reaction was stopped by adding EDTA solution (250 mmol, pH 8.0, 14 μl/measuring point).
From each reaction batch, 10 μl was applied to P30 filter strips (Wallac Company), and non-incorporated ^33P-ATP was removed by subjecting the filter strips to three washing cycles for 10 minutes each in 0.5% phosphoric acid. After the filter strips were dried for one hour at 70° C., the filter strips were covered with scintillator strips (MeltiLex™ A, Wallac Company) and baked for one hour at 90° C. The amount of incorporated ^33p (substrate phosphorylation) was determined by scintillation measurement in a gamma-radiation measuring device (Wallac).

| Compound | IC50 (MCF-7; Homo sapiens, comparison table) [nM] | IC50 (DU145) [µM] | melting point [°C] | IC50 (H460) [nM] | IC50 (HCT116) [nM] | IC50 (CDK2/CycE; comparison table) [nM] | IC50 (CDK2/CycE) [nM] | IC50 (MCF-7; human tumor cells) [nM] |
| --- | --- | --- | --- | --- | --- | --- | --- | --- |
| C[S+]([O-])c1ccc2c(c1)/C(=C1/Nc3ccccc3C1=O)C(=O)N2 (stereo not drawn) [Example 2.0, 5-Methylsulfinyl-indirubin] | 1500 | 6 | 284 | 4000 | 2500 | 80 |  |  |
| CSc1ccc2c(c1)/C(=C1/Nc3ccccc3/C1=N\O)C(=O)N2 [Example 4.0, 5-Methylsulfanyl-3′,-hydroyimino-indirubin] | 700 | 1 | 156 | 1000 | 600 | 20 |  |  |
| CSc1ccc2c(c1)/C(=C1/Nc3ccc(OCc4ccccc4)cc3C1=O)C(=O)N2 [Example 5.1] |  |  |  |  |  |  | 5000 |  |
| CSc1ccc2c(c1)/C(=C1/Nc3ccc(NC(C)=O)cc3C1=O)C(=O)N2 [Example 5.0, 5-Methysulfanyl-5′-N-acetylindirubin] |  |  |  |  |  |  | 110 | 5000 |
| CSc1ccc2c(c1)/C(=C1/Nc3ccccc3C1=O)C(=O)N2 [Example 1.0, 5-Methylsulfanyl-indirubin] | 500 |  | > 210 |  |  | 300 |  |  |
